Measurements from patent publication US11208412B2 (DAEGU-GYEONGBUK MEDICAL INNOVATION FOUNDATION, priority 2017, dated 2021).
Read-outs that look alike come from different tables or passages of the source.

Assays:
Experiment in all cases: Kinase selectivity, DiscoverX scanMAX Kinase assay panel (% control)
Format in all cases: binding
[1] = target: T1, kinases of the scanMAX Kinase assay panel (Homo sapiens, UniProt O75716); settings: kinase STK16; 1 uM in DMSO
T1 construct: purchased DiscoverX Co. (contract measurement) scanMAX Kinase assay panel
Summary of the method: (§1)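 Read-out is % control, normalised so a positive-control compound sits at 0% and DMSO at 100%: (test − positive)/(negative − positive)×100. Each kinase received the compound at 1 uM in DMSO. A value below 35% counts as activity.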

[2] = target: T2, kinases of the scanMAX Kinase assay panel (Homo sapiens, UniProt P04629); settings: kinase TRKA; 1 uM in DMSO
T2 construct: purchased DiscoverX Co. (contract measurement) scanMAX Kinase assay panel
Summary of the method: as §1

[3] = target: T3, kinases of the scanMAX Kinase assay panel (Homo sapiens, UniProt P10721, V559D); settings: KIT(V559D); 1 uM
T3 construct: purchased DiscoverX Co. (contract measurement) scanMAX Kinase assay panel
Summary of the method: as §1

[4] = target: T4, kinases of the scanMAX Kinase assay panel (Homo sapiens, UniProt P19525); settings: PRKR; 1 uM
T4 construct: purchased DiscoverX Co. (contract measurement) scanMAX Kinase assay panel
Summary of the method: as §1

[5] = target: T5, kinases of the scanMAX Kinase assay panel (Homo sapiens, UniProt P29597); settings: 1 uM in DMSO
T5 construct: purchased DiscoverX Co. (contract measurement) scanMAX Kinase assay panel
Summary of the method: as §1

[6] = target: T6, kinases of the scanMAX Kinase assay panel (Homo sapiens, UniProt P31152); settings: ERK4; 1 uM
T6 construct: purchased DiscoverX Co. (contract measurement) scanMAX Kinase assay panel
Summary of the method: as §1

[7] = target: T7, kinases of the scanMAX Kinase assay panel (Homo sapiens, UniProt P45983); settings: JNK1; 1 uM
T7 construct: purchased DiscoverX Co. (contract measurement) scanMAX Kinase assay panel
Summary of the method: as §1

[8] = target: T8, kinases of the scanMAX Kinase assay panel (Homo sapiens, UniProt Q15303); settings: ERBB4; 1 uM
T8 construct: purchased DiscoverX Co. (contract measurement) scanMAX Kinase assay panel
Summary of the method: as §1

[9] = target: T9, kinases of the scanMAX Kinase assay panel (Homo sapiens, UniProt Q8N4C8); settings: MINK; 1 uM
T9 construct: purchased DiscoverX Co. (contract measurement) scanMAX Kinase assay panel
Summary of the method: as §1

[10] = target: T10, kinases of the scanMAX Kinase assay panel (Homo sapiens, UniProt Q92772); settings: CDKL2; 1 uM
T10 construct: purchased DiscoverX Co. (contract measurement) scanMAX Kinase assay panel
T10 sequence (Q92772 1-493): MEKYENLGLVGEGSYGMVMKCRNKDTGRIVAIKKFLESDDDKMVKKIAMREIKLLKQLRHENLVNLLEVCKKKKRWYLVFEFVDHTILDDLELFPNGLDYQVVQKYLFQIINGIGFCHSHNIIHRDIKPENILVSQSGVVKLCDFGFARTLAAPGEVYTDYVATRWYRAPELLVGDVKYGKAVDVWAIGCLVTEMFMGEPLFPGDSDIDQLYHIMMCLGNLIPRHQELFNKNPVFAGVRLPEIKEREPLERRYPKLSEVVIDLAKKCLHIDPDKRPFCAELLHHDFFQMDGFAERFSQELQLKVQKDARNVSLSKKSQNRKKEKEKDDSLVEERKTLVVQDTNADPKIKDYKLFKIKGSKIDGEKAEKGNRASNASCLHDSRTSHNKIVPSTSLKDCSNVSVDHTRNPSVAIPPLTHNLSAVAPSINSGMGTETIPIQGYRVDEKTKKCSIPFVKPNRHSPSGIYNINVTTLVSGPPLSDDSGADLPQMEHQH
Summary of the method: as §1

[11] = target: T11, kinases of the scanMAX Kinase assay panel (Homo sapiens, UniProt Q9BRS2); settings: kinase RIOK1; 1 uM in DMSO
T11 construct: purchased DiscoverX Co. (contract measurement) scanMAX Kinase assay panel
T11 sequence (Q9BRS2 1-568): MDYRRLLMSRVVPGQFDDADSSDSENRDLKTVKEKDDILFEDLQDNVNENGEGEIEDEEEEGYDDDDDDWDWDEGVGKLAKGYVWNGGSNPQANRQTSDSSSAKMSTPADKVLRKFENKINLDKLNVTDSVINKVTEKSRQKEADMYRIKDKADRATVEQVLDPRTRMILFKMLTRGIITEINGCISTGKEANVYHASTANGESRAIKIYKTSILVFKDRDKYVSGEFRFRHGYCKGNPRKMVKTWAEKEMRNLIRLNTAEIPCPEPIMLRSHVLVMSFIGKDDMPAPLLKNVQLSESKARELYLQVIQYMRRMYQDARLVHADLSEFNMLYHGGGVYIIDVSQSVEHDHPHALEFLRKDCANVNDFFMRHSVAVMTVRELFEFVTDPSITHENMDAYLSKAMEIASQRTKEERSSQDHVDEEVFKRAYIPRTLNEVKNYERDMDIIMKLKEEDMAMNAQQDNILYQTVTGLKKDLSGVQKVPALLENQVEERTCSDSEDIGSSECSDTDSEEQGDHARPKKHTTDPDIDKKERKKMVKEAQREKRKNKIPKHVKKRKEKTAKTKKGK
Summary of the method: as §1

[12] = kinase TYK2(JH1domain-catalytic), read-out: % control, TYK2(JH1domain-catalytic)
[13] = kinase TYK2(JH2domain-pseudokinase), read-out: % control, TYK2(JH2domain-pseudokinase)

T4 sequence (P19525 whole entry): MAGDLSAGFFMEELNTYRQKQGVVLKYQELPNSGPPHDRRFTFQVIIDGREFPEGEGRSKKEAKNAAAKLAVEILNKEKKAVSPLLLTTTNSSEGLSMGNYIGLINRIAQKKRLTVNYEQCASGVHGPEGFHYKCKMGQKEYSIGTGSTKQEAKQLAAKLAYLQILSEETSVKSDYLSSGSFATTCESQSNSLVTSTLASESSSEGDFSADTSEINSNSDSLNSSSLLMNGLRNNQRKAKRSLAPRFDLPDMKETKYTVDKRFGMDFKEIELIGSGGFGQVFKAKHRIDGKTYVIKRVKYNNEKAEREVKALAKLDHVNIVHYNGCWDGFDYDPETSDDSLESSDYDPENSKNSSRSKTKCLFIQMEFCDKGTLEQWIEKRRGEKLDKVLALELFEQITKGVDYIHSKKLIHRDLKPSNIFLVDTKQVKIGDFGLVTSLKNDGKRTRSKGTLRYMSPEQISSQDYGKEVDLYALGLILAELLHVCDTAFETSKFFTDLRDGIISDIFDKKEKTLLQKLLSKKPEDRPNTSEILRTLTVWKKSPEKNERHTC
T1 sequence (O75716 whole entry): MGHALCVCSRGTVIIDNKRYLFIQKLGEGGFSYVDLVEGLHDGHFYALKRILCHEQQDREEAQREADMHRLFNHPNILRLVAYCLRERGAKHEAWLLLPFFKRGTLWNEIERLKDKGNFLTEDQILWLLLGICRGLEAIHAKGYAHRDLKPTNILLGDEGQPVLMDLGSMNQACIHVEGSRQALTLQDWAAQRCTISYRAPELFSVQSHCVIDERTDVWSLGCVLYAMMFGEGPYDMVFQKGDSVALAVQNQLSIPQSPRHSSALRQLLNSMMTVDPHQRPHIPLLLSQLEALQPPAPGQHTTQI
T7 sequence (P45983 whole entry): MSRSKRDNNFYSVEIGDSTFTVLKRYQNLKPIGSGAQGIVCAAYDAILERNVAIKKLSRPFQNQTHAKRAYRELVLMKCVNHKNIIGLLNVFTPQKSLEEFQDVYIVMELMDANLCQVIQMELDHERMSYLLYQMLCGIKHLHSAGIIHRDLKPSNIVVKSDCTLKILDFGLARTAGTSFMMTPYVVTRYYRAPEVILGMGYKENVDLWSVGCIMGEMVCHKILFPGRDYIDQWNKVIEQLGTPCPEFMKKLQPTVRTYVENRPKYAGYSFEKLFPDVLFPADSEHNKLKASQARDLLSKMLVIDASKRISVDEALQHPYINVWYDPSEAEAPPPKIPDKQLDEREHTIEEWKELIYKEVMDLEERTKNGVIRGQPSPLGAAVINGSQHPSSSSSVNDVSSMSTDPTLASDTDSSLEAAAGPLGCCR
T2 sequence (P04629 33-796): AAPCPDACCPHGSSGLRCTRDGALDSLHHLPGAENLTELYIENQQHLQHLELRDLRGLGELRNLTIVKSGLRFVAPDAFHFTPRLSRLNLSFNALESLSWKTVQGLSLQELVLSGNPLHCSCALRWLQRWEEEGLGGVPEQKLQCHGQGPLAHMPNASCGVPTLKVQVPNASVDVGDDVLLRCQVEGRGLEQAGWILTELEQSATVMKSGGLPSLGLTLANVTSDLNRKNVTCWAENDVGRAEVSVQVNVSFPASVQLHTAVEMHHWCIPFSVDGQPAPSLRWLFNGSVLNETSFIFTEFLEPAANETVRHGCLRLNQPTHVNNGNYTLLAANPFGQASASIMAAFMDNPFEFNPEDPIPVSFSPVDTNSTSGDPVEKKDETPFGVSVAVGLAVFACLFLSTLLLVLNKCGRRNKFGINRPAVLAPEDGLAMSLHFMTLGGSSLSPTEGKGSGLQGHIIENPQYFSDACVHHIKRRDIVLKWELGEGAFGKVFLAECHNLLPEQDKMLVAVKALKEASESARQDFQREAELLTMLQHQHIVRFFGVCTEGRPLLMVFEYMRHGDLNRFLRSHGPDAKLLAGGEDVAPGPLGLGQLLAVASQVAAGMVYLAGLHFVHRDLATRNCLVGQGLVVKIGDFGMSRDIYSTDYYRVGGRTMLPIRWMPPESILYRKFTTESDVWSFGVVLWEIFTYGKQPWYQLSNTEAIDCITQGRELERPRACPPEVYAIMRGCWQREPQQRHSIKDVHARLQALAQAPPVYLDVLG
T9 sequence (Q8N4C8 whole entry): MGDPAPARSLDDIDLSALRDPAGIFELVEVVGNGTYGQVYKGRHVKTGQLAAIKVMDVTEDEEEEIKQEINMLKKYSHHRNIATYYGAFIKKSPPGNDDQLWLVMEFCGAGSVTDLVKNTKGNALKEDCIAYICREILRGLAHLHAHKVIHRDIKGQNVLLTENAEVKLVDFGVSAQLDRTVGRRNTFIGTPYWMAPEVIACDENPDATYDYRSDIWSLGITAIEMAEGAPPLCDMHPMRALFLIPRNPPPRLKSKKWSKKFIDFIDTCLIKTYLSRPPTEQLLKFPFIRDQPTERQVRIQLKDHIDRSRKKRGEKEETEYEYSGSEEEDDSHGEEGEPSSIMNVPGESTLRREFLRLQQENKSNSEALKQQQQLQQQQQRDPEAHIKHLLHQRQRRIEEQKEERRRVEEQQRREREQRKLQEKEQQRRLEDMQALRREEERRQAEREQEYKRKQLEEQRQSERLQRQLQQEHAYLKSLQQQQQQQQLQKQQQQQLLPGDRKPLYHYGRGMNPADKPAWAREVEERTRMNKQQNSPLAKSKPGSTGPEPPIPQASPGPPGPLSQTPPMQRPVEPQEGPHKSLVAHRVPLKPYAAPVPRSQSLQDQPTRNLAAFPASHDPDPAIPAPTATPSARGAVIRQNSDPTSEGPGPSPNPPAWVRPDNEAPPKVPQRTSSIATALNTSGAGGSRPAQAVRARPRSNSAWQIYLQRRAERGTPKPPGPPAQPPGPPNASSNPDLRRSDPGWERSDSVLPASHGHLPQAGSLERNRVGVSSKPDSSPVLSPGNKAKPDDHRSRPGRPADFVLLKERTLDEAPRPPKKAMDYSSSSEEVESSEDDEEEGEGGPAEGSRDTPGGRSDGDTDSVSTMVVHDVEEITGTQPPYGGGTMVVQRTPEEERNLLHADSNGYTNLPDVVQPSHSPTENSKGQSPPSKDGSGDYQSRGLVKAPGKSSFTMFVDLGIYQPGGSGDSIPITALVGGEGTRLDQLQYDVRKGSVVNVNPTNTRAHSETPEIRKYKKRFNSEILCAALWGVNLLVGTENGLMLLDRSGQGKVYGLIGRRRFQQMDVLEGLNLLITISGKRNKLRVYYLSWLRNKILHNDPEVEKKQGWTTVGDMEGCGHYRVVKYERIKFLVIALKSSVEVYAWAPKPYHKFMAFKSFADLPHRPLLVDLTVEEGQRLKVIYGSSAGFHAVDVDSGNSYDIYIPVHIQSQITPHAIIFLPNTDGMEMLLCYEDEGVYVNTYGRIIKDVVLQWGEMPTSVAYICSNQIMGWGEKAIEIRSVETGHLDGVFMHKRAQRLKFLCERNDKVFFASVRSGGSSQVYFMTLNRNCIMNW
T6 sequence (P31152 whole entry): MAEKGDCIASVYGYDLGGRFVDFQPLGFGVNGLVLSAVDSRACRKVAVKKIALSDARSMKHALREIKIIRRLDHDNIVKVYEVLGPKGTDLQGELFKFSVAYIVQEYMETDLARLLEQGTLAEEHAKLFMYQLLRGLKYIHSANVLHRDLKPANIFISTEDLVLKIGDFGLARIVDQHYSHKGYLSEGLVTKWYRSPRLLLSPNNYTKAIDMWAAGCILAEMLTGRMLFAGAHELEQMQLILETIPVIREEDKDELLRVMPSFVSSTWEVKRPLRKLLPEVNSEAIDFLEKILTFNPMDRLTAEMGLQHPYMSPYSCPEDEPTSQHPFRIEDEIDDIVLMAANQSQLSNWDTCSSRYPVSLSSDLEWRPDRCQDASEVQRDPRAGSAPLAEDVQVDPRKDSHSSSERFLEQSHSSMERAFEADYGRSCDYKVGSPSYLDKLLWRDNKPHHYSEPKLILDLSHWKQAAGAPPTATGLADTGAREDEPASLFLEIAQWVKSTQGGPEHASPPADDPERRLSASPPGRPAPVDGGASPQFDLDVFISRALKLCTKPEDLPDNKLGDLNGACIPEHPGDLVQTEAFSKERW
T3 sequence (P10721 26-976 V559D): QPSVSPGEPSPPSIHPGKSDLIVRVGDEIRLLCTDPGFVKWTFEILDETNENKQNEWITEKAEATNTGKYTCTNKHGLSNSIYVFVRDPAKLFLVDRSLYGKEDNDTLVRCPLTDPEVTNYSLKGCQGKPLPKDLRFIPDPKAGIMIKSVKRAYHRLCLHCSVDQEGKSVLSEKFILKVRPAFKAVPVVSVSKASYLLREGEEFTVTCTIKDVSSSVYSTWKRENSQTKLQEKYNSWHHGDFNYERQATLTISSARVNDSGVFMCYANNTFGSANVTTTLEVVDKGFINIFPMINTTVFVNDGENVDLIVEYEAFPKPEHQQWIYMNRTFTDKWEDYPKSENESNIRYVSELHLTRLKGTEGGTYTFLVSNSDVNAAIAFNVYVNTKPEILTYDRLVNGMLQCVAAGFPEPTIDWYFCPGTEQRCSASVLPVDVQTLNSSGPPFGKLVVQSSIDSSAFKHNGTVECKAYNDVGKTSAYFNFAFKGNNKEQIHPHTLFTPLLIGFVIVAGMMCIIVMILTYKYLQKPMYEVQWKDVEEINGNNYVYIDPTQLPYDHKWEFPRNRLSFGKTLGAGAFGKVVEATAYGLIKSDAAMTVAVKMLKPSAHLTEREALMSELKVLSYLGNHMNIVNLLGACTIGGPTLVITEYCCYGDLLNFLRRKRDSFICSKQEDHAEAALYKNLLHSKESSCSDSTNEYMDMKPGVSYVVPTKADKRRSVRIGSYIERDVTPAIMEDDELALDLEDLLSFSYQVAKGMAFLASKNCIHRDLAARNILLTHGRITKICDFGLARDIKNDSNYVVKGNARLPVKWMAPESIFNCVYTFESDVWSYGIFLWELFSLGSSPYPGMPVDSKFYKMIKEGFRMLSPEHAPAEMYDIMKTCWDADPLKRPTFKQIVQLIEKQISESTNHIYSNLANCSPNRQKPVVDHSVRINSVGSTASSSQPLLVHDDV

Row | Compound | remaining binding at 1 µM [1] [%] | remaining binding at 1 µM [2] [%] | remaining binding at 1 µM [3] [%] | remaining binding at 1 µM [4] [%] | remaining binding at 1 µM [5, 12] [%] | remaining binding at 1 µM [5, 13] [%] | remaining binding at 1 µM [6] [%] | remaining binding at 1 µM [7] [%] | remaining binding at 1 µM [8] [%] | remaining binding at 1 µM [9] [%] | remaining binding at 1 µM [10] [%] | remaining binding at 1 µM [11] [%]
1 | CCNc1nc(Nc2ccc(C(=O)N3CCC(N4CCOCC4)CC3)cc2OC)nc2[nH]cc(C(F)(F)F)c12 [Example 104, (4-((4-(ethylamino)-5-(trifluoromethyl)-7H-pyrrolo[2,3-d]pyrimidine-2-yl)amino)-3-methoxyphenyl)(4-morpholinopiperidine-1-yl)methanone] | 69 | 98 | 46 | 85 | 100 | 100 | 92 | 25 | 100 | 91 | 100 | 100
2 | CNc1nc(Nc2ccc(C(=O)N3CCOCC3)cc2OC)nc2[nH]cc(C#N)c12 [Example 1, 2-((2-methoxy-4-(morpholine-4-carbonyl)phenyl)amino)-4-(methylamino)-7H-pyrrolo[2,3-d]pyrimidine-5-carbonitrile] | 74 | 67 | 38 | 95 | 80 | 66 | 95 | 0 | 99 | 50 | 99 | 100
3 | CC1(Nc2nc(Nc3cnn([C@H]4CCN(C5COC5)C[C@@H]4F)c3Cl)nc3[nH]cc(C#N)c23)CC1 [Example 52, 2-((5-chloro-1-((3S,4S)-3-fluoro-1-(oxetane-3-yl)piperidine-4-yl)-1H-pyrazole-4-yl)amino)((1-methylcyclopropyl)amino)-7H-pyrrolo[2,3-d]pyrimidine-5-carbonitrile] | 0.35 | 0.5 | 0 | 42 | 0 | 7.2 | 100 | 0 | 45 | 6.4 | 73 | 0.7
